Source: patent US20040024024A1, “Aromatic sulfone hydroxamates and their use as protease inhibitors” (priority 2001, published 2004)

Assays:
Assay in all cases: In vitro MMP inhibition, IC50 determination (fluorogenic substrate I)
Type in all cases: biochemical
Human recombinant MMP-1 = target: T1, Human recombinant MMP-1 (Homo sapiens, UniProt P03956)
T1 construct: made in house; host or cells: MMP-1-transfected HT-1080 cells (spent media)
T1 sequence (P03956 100-469): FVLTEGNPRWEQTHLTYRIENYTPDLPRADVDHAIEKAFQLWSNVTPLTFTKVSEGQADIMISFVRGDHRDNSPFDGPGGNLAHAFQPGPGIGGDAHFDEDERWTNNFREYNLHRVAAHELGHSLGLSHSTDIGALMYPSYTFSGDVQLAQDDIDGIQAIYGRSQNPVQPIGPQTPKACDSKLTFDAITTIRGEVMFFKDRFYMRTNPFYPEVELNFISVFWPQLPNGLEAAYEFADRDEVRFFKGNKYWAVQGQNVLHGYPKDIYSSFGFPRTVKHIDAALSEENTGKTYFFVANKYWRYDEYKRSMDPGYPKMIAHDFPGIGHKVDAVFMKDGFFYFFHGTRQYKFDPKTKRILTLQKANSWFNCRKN
Summary of the method: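 Inhibitor dilutions were made in 100 mM Tris-HCl/100 mM NaCl/10 mM CaCl2 buffer, pH 7.5, and incubated at room temperature with activated proenzyme (from transfected HT-1080 media; APMA or trypsin) and 4 μM quenched methoxycoumarin peptide substrate. Loss of 415 nm fluorescence (328 nm excitation) against concentration gave IC50.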

Human recombinant MMP-2 = target: T2, Human recombinant MMP-2 (Homo sapiens, UniProt P08253)
T2 construct: made in house; host or cells: MMP-2-transfected p2AHT2 cells
T2 sequence (P08253 110-660): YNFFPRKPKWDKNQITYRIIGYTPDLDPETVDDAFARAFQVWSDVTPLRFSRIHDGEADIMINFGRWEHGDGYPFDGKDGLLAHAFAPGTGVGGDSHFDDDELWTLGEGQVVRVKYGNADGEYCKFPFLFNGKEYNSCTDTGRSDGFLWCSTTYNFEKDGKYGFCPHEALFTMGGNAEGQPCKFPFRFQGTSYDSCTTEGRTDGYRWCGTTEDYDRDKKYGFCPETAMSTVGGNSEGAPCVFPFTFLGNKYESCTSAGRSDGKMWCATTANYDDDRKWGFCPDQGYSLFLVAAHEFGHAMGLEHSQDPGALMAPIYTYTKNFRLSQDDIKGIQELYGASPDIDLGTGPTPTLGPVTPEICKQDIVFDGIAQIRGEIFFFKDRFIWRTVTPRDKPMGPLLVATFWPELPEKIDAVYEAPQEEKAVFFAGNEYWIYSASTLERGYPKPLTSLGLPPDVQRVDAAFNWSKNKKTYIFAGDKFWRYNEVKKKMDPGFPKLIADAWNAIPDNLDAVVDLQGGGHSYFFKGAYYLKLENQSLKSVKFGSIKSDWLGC
Summary of the method: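 IC50 was derived from the concentration-dependent fall in fluorescence (ex 328, em 415 nm) on Gly-Leu cleavage of 4 μM MCA/Dpa-quenched substrate I. Assays ran at room temperature in pH 7.5 Tris/NaCl/CaCl2/Brij buffer with MMP-2 activated by trypsin or APMA; inhibitors were diluted from 1% DMSO stocks.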

Human recombinant MMP-14 = target: T3, Human recombinant MMP-14 (Homo sapiens, UniProt P50281)
T3 construct: The catalytic domain enzyme was expressed in E. coli inclusion bodies, solubilized in urea; made in house
Summary of the method: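 IC50 came from reduced fluorescence (ex 328 nm, em 415 nm) as inhibitor concentration rose, with 4 μM substrate I cleaved at Gly-Leu. Room-temperature incubation in pH 7.5 Tris buffer with 10 mM CaCl2; the E. coli-expressed, refolded MMP-14 catalytic domain was activated with trypsin or APMA.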

Human recombinant MMP-13 = target: T4, Human recombinant MMP-13 (Homo sapiens, UniProt P45452)
T4 construct: made in house; host or cells: baculovirus / insect cells
Summary of the method: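 Fluorescence at 415 nm (excitation 328 nm) reports Gly-Leu cleavage of 4 μM quenched methoxycoumarin peptide substrate I. Human recombinant MMP-13, activated by trypsin or APMA, was incubated at room temperature with varied inhibitor concentrations in pH 7.5 Tris/NaCl/CaCl2 buffer; IC50 derived from reduced fluorescence.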

Human recombinant MMP-9 = target: T5, Human recombinant MMP-9 (Homo sapiens, UniProt P14780)
T5 construct: made in house; host or cells: MMP-9-transfected HT1080 cells (spent media)
T5 sequence (P14780 107-707 limits assumed): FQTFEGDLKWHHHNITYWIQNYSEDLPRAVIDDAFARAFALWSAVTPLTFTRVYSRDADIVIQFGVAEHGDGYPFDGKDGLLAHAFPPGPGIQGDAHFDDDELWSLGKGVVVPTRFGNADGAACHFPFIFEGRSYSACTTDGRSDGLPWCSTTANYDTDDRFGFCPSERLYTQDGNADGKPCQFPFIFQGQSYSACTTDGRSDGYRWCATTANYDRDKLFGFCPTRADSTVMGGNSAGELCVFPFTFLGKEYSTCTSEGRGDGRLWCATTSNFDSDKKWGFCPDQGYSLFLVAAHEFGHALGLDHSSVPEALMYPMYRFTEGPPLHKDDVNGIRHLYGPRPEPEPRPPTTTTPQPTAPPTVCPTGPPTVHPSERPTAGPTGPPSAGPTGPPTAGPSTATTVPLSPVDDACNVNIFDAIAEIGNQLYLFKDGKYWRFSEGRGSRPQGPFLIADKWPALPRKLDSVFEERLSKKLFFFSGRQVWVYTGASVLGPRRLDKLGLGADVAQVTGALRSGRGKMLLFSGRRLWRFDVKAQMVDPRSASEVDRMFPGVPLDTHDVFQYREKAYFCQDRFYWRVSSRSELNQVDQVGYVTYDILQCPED
Summary of the method: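 Reduction in fluorescence (328 nm excitation, 415 nm emission) from cleavage of 4 μM quenched peptide substrate I, measured at room temperature against inhibitor concentration, gave IC50. Enzyme: trypsin- or APMA-activated MMP-9 purified from transfected HT1080 medium; buffer 100 mM Tris, 100 mM NaCl, 10 mM CaCl2, pH 7.5.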

[1] = value outside parentheses (Ki in parenthesis)
[2] = substrate (I) 4 μM, room temperature, values not in parenthesis

| IC50 (Human recombinant MMP-1; [1]) [µM] | IC50 (Human recombinant MMP-2; [1]) [µM] | IC50 (Human recombinant MMP-14; [1]) [µM] | IC50 (Human recombinant MMP-13; [1]) [µM] | IC50 (Human recombinant MMP-9; [1]) [µM] | IC50 (Human recombinant MMP-1; value outside parenthesis) [µM] | IC50 (Human recombinant MMP-2; value outside parenthesis) [µM] | IC50 (Human recombinant MMP-14; value outside parenthesis) [µM] | IC50 (Human recombinant MMP-13; value outside parenthesis) [µM] | IC50 (Human recombinant MMP-9; value outside parenthesis) [µM] | Compound | further results |
| --- | --- | --- | --- | --- | --- | --- | --- | --- | --- | --- | --- |
| – | – | – | – | – | > 10 | 0.222 | > 10 | 0.0062 | 0.516 | O=C1N(CCCOc2ccc(S(=O)(=O)C3(C(=O)NO)CCOCC3)cc2)CCN1c1ccc(OC(F)(F)F)cc1 [Example 194] | – |
| – | – | – | – | – | > 10 | 0.0203 | > 10 | 0.0003 | 0.768 | O=C(NO)C1(S(=O)(=O)c2ccc(OCCCc3nc(-c4ccc5c(c4)OCO5)no3)cc2)CCOCC1 [Example 215] | – |
| > 10 | 0.011 | 6.5 | 0.007 | 0.018 | – | – | – | – | – | O=C(NO)C1(S(=O)(=O)c2ccc(NCCCCc3ccccc3)cc2)CCOCC1 [Example 462] | – |
| 2.7 | 0.004 | 2 | 0.003 | 0.014 | – | – | – | – | – | C/C(=C\c1ccccc1)COc1ccc(S(=O)(=O)C2(C(=O)NO)CCOCC2)cc1 [Example 479] | – |
| – | – | – | – | – | > 10 | 0.0433 | > 10 | 0.0026 | 0.704 | COc1ccc2sc(SCCOc3ccc(S(=O)(=O)C4(C(=O)NO)CCOCC4)cc3)nc2c1 [Example 282] | – |
| > 10 | 0.0062 | 0.997 | 0.0018 | 0.0054 | – | – | – | – | – | COc1ccc(OCCCOc2ccc(S(=O)(=O)C3(C(=O)NO)CCN(C4CC4)CC3)cc2)cc1 [Example 442] | – |

Second part, the compound before the results:

| Compound | IC50 (Human recombinant MMP-1; [1]) [µM] | IC50 (Human recombinant MMP-2; [1]) [µM] | IC50 (Human recombinant MMP-14; [1]) [µM] | IC50 (Human recombinant MMP-13; [1]) [µM] | IC50 (Human recombinant MMP-9; [1]) [µM] | IC50 (Human recombinant MMP-1; value outside parenthesis) [µM] | IC50 (Human recombinant MMP-2; value outside parenthesis) [µM] | IC50 (Human recombinant MMP-14; value outside parenthesis) [µM] | IC50 (Human recombinant MMP-13; value outside parenthesis) [µM] | IC50 (Human recombinant MMP-9; value outside parenthesis) [µM] | further results |
| --- | --- | --- | --- | --- | --- | --- | --- | --- | --- | --- | --- |
| CC(C)(COc1ccc(S(=O)(=O)C2(C(=O)NO)CCOCC2)cc1)CSc1ccccc1 [Example 437] | > 10 | > 10 | > 10 | 0.09 | > 10 | – | – | – | – | – | – |
| O=C(NO)C1(S(=O)(=O)c2ccc(OCCCCCn3cnc4ccccc43)cc2)CCOCC1 [Example 359] | > 10 | 0.0023 | 7.96 | 0.001 | 1.18 | – | – | – | – | – | – |
| COCCN1CCC(C(=O)NO)(S(=O)(=O)c2ccc(OCCCNC(=O)c3ccc(OC(C)C)c(C)c3)cc2)CC1 [Example 230] | – | – | – | – | – | > 10 | 0.555 | > 10 | 0.0011 | 1.02 | – |
| CC(CCc1ccccc1)Oc1ccc(S(=O)(=O)C2(C(=O)NO)CCOCC2)cc1 (stereo not shown) [Example 467] | > 10 | 0.94 | > 10 | 0.12 | 0.45 | – | – | – | – | – | – |
| Cc1ccccc1-c1nnc(CCCOc2ccc(S(=O)(=O)C3(C(=O)NO)CCOCC3)cc2)o1 [Example 32, tetrahydro-N-hydroxy-4-[[4-[3-[5-(2-methylphenyl)-1,3,4-oxadiazol-2-yl]propoxy]phenyl]sulfonyl]-2H-pyran-4-carboxamide] | – | – | – | – | – | – | – | – | – | – | IC50 (Human recombinant MMP-1; [2]): > 10 µM; IC50 (Human recombinant MMP-2; [2]): 0.218 µM; IC50 (Human recombinant MMP-14; [2]): > 10 µM; IC50 (Human recombinant MMP-13; [2]): 0.0008 µM; IC50 (Human recombinant MMP-9; [2]): 4.08 µM |
| O=C(NO)C1(S(=O)(=O)c2ccc(OCCOCc3cccc([N+](=O)[O-])c3)cc2)CCOCC1 [Example 662] | – | – | – | – | – | – | – | – | – | – | IC50 (Human recombinant MMP-1; value outside parentheses): 2.31 µM; IC50 (Human recombinant MMP-2; value outside parentheses): 0.00713 µM; IC50 (Human recombinant MMP-14; value outside parentheses): 1.67 µM; IC50 (Human recombinant MMP-13; value outside parentheses): 0.0009 µM; IC50 (Human recombinant MMP-9; value outside parentheses): 0.0443 µM |
| O=C(NO)C1(S(=O)(=O)c2ccc(OCCCOc3ccc(F)cc3F)cc2)CCOCC1 [Example 445] | 3.32 | 0.0022 | 0.546 | 0.0005 | 0.044 | – | – | – | – | – | – |
| O=C(NO)C1(S(=O)(=O)c2ccc(OCCSc3nc4ccc(Cl)cc4o3)cc2)CCN(C2CC2)CC1 [Example 188] | – | – | – | – | – | > 10 | 0.0047 | 3.54 | 0.0003 | 0.0482 | – |
